Data set [1] concerns beta-catenin. As to the kind of experiment: Nuclear beta-catenin assay in rat neonatal cardiomyocytes. Type of data set: cell-based. The following applies: 16 hours, FIG. 23. From the text:
We have used a nuclear beta-catenin assay to readily identify Wnt-related polypeptides that promote Wnt signaling via the canonical Wnt signaling pathway in cardiac cells. Specifically, and by way of example, we conducted a nuclear beta-catenin assay in rat neonatal cardiomyocytes to identify Wnt-related polypeptides that promote Wnt signaling via the canonical Wnt signaling pathway in cardiomyocytes. Such an assay conducted in neonatal or adult cardiac cells including, but not limited to, cardiomyocytes can be used to identify candidate agents that are capable of promoting Wnt signaling via the canonical Wnt signaling pathway in cardiac cells.
Briefly, neonatal cardiomyocytes were prepared and plated as outlined in detail above. Cells were washed two times with serum-free medium and were incubated in medium containing either a recombinant Wnt-related polypeptide, or some control factor. Cells were incubated for 16 hours, were fixed in 4% Formaldehye for 10 minuntes at room temperature, and were permeabilized with 0.2% Triton X-100 for 5 minutes. […] Although beta-catenin is not typically detectable by immunocytochemistry in the absence of active Wnt signaling, the nuclei were counterstained with 4′,6-diamidino-2-phenylindole (DAPI) to specifically confirm that the detected beta-catenin expression was localized to the nucleus. […]
Neonatal cardiomyocytes were cultured under one of the following conditions: medium alone (negative control), 10 mM LiCl, 2% fetal calf serum (FCS), 10% fetal calf serum (FCS), 25 ng/ml recombinant mouse Wnt5A (Catalog# 645-WN/CF), 50 ng/ml recombinant mouse Wnt5A (Catalog# 645-WN/CF), 100 ng/ml recombinant mouse Wnt5A (Catalog# 645-WN/CF), 25 ng/ml recombinant mouse Wnt3A (Catalog # 1324-WN/CF), 50 ng/ml recombinant mouse Wnt3A (Catalog # 1324-WN/CF), or 100 ng/ml recombinant mouse Wnt3A (Catalog # 1324-WN/CF). Following culture under one of the foregoing conditions, cells were analyzed by immunocytochemistry for expression of beta-catenin protein, and nuclear localization was verified by counterstaining the cells with DAPI. […]

In data set [2] the test system is neonatal rat cardiomyocytes. As to the kind of experiment: Neonatal rat cardiomyocyte proliferation, DNA synthesis by BrdU incorporation. Type of data set: cell-based. The following applies: for cardiomyocyte proliferation: 48 hours, FIG. 22. Here is the method: Neonatal rat cardiomyocytes were isolated from postnatal day 2 Wistar rat pups. Rat pups were anesthetized by hypothermia in ice water for 10 min and euthanized by decapitation. Hearts were isolated and placed in PBS-G (KCl 2 g/L; KH2PO4 2 g/L; NaCl 80 g/L; Na2HPO4.7H20 21.6 g/L; D-glucose 10 g/L) on ice. The atria were removed and ventricles were washed in PBS-G and cut into pieces smaller than 2 millimeters. PBS-G containing 119.6 units/ml collagenase type 2 and 0.2 mg/ml pancreatin was warmed to 37° C. Amounts of collagenase were adjusted for batch variations in units/mg activity. Ventricles were dissociated in collagenase/pancreatin solution for 15 minutes on a rotator at 37° C. Tissue was dispersed gently by pipetting and allowed to settle for 5 min at room temperature. Cell suspension from first dissociation was discarded and replaced with fresh collagenase/pancreatin solution, and incubated at 37° C. for 15 minutes on an orbital shaker. Tissue was again dispersed and allowed to settle. The cell supension was transferred to a new tube and incubated an additional 5 min at 37° C., and the digestion was stopped by addition of an equal volume of DMEM/20% NCS and stored on ice. Digestion of the ventricular tissue was repeated 3 additional times and supernatants were collected and stored on ice in equal volumes of DMEM/20% NCS.
Cells from all the fractions were collected at 200 RCF for 6 min at room temperature. Cell pellets were resuspended in 2 ml ADS buffer (6.8 g/L NaCl, 0.4 g/L KCl, 1.0 g/L D-glucose, 1.5 g/L NaH2PO4, 4.75 g/L HEPES, 0.1 MgSO4.7H2O). One ml of cell suspension was applied to two Percoll gradients set up in the following manner. The top Percoll gradient (density 1.059 g/ml) was generated by mixing Percoll stock with ADS buffer in a 9:11 ratio, and the bottom Percoll gradient (density 1.082 g/ml) was made by mixing Percoll stock and ADS buffer in a 13:7 ratio. Four ml Top Percoll was added to a 15 ml conical tube, and three ml Bottom Percoll was laid below it by placing a pipet tip at the bottom of the tube, then carefully withdrawing it as the solution was delivered. The gradients were centrifuged at 3000 rpm for 30 consecutive minutes at room temperature. Cardiac non-myocytes were located above the top percoll buffer while cardiac myocytes were located at the interface of the top and bottom percoll layers. Blood and undissociated tissue were found at the bottom of the tube. Cardiac myocytes were collected after the top percoll was aspirated, and resuspended in DMEM/10% FBS, then centrifuged at 200 RCF for 6 min. Pelleted myocytes were resuspended in plating medium containing DMEM with 25 mM HEPES, 5% horse serum, 4 mM glutamine, penicillin and streptomycin. Four volumes of DMEM/10% FBS were added and the cell suspension was passed through a 40 uM cell strainer. Cells were pre-plated in 10 cm tissue culture plates for 1 hour at 37° C. Unattached cells were collected from the medium and centrifuged at 200 RCF for 6 min. Pelleted myocytes were resuspended in plating medium containing 10 uM AraC at a density of 100000 cells/ml and 200 ul/well were distributed into 96 well plates which had previously been coated with 0.1% gelatin/12.5 ug/ml fibronectin at 37° C. for more than 4 hours. Plated cells were grown for at least 48 hours at 37° C. prior to use in further experiments.
Briefly, the experiments summarized in FIG. 15 and FIG. 16 were conducted as follows. Neonatal rat cardiomyocytes were prepared and cultured as outlined in example 1. […]
For orientation: Uptake of a labelled nucleoside into DNA is a usual measure of proliferation.

Data set [3] concerns neonatal rat cardiomyocytes. As to the kind of experiment: Hypertrophic response: ANF and tropomyosin immunocytochemistry in neonatal rat cardiomyocytes. The following applies: Wnt3A 150 ng/ml, phenylephrine as hypertrophic stimulus.
Method: Briefly, neonatal rat cardiomyocytes were treated with serum or phenylephrine (two agents known to induce hypertrophy), or were treated with 150 ng/ml recombinant Wnt3A. Following treatment, the cells were analyzed by immunocytochemistry for expression of atrial naturietic factor (ANF) (rabbit anti-ANF/Peninsula laboratories/Bachem) or expression of tropomyosin (CH1 antibody available from Developmental Hybridoma).
For data set [4], the system named is Sca1+ cell preparation. Put plainly: Viable cell count, Sca1+ adult cardiac cell preparation. Type of data set: cell-based, mouse. Conditions: Sca1+ cell preparations, 3-4 days culture; recombinant Wnt3A at 50 ng/ml; FIG. 25a. Here is the method: (§1) Whole hearts were obtained from adult mice (greater than 5 weeks of age). Cardiac tissue was minced and washed three times to remove blood. Cardiac cells were dissociated with pancreatin and collagenase for 15 minutes at 37° C. and washed. Following dissociation the unfractionated cells were either plated, or fractionated into a Sca1+ and Sca1− population prior to plating. These three cardiac cell populations (unfractionated cell preparation; Sca1+cell preparation; Sca1− cell preparation) were cultured in the presence of various Wnt-related compositions. Specifically, the cardiac cell preparations were cultured for 3-4 days in either L-cell conditioned medium alone; LWW60 conditioned medium; or culture medium containing purified Wnt3A protein. Following 3-4 days in culture, the cardiac cells were washed with PBS and trypsinized, and viable cells were counted.

Data set [5] relates to unfractionated adult cardiac cells. As to the kind of experiment: Viable cell count, unfractionated adult cardiac cells. Type of data set: cell-based, mouse. Conditions: unfractionated (whole heart) preparations, 3-4 days culture; recombinant Wnt3A at 50 ng/ml; FIGS. 24, 25a. On the procedure: as §1
For data set [6], the system named is β-catenin. As to the kind of experiment: β-catenin stabilization by immunocytochemistry in neonatal rat cardiomyocytes. It counts as cell-based. Conditions: 48 hours in neonatal base medium; recombinant Wnt3A 167 ng/ml or 500 ng/ml, or serum; FIG. 19. Here is the method:
Briefly, neonatal rat cardiomyocytes were treated with either serum or with recombinant Wnt3A (e.g., 167 ng/ml or 500 ng/ml) in neonatal base medium for 48 hours. The treated cells were fixed, permeablilized with 0.5% Triton-X-100 for 15 minutes, and blocked in 5% goat serum in PBS-T for one hour. Mouse anti-β-catenin antibody (BD-Pharmingen) diluted 1:250 were incubated on cells for one hour. Cells were washed 3 times in PBS-T and incubated one hour in Alexa 594 goat anti-mouse antibody (Molecular Probes) at a dilution of 1:200.

Data set [7] deals with one or more non-cardiac cells types. Conditions: cited from earlier work.
The subject of data set [8] is Wnt3A induced cardiomyocyte proliferation. As to the kind of experiment: Wnt antagonists co-administered with Wnt3A-L-cell supernatant, cardiomyocyte proliferation. It counts as cell-based, rat. The following applies: 100 ng/ml of the Wnt inhibitor; FIG. 18. On the procedure: To confirm that Wnt3A was responsible for the stimulation of cardiomyocyte proliferation observed in FIG. 17, we co-administered supernatant from Wnt3A expressing mouse L-cells and the Wnt antagonist dkk (recombinant dkk obtained from R&D Systems).
Nevertheless, the inhibition of Wnt3A induced cardiomyocyte proliferation by dkk supports the conclusion that Wnt3A is the active cardiomyocyte proliferative factor in the conditioned medium.
The experiments were conducted and analyzed as detailed above in examples 2 and 3.

Where [9] appears, read: recombinant mouse Wnt protein 25 ng/ml-100 ng/ml.

Regarding `[Cl-].[Li+]` [LiCl, lithium chloride, reference compound], the “beta-catenin nuclear localization (percentage of cells with nuclear beta-catenin staining)” value in data set [1] (10 mM LiCl, versus medium alone or 2% or 10% serum) is “promoted beta-catenin nuclear localization”. For the same molecule, in data set [2] (LiCl 10 mM, 5 mM or 2.5 mM), the cardiomyocyte proliferation result was “promoted cardiomyocyte proliferation”.

For `CNC[C@H](O)c1cccc(O)c1` [phenylephrine], the ANF expression increased entry in data set [3] (FIG. 20) was “increased”. Moreover, in data set [3] (FIG. 21), the “change in cardiomyocyte cell size and shape” value was “vastly different cell shape, size, and morphology”.

For the molecule Wnt3A, the “beta-catenin nuclear localization (percentage of cells with nuclear beta-catenin staining)” value in data set [1] (setting [9]) was “promoted beta-catenin nuclear localization”. Besides, the “cardiomyocyte proliferation level compared with serum” value in data set [2] (higher doses of Wnt3A, FIG. 16) is “comparable to serum”. Also, in data set [2] (recombinant Wnt3A 150, 50 or 17 ng/ml), the cardiomyocyte proliferation result is “promoted cardiomyocyte proliferation”. In addition, in data set [2] (recombinant Wnt3A dilution series, FIG. 16), the “cardiomyocyte proliferation, dilution series” value is “promoted cardiomyocyte proliferation in a dose dependent manner”. Further, the “cardiomyocyte proliferation, as measured by incorporation of BrdU” value in data set [2] (recombinant mouse Wnt3A 0.06, 0.4, 2.3, 14, 83 and 500 ng/ml, FIG. 15) is “statistically significant, dose dependent increase in cardiomyocyte proliferation”. For the same molecule, the “number of viable cells” value in data set [4] and in data set [5] was “also increased the number of viable cells” in each case. The “stabilization of β-catenin (increased detection and nuclear localization), Wnt signaling” value in data set [6] was “resulted in stabilization of β-catenin”. In addition, the “Wnt signaling pathway shown in one or more non-cardiac cell types” value in data set [7] is recorded as “signal via the canonical pathway”.

B1: Wnt5A: recombinant mouse Wnt5A (Catalog# 645-WN/CF) (protein, UniProt P22725 62-380, looked up)
Protein Wnt-5a: IIGAQPLCSQLAGLSQGQKKLCHLYQDHMQYIGEGAKTGIKECQYQFRHRRWNCSTVDNTSVFGRVMQIGSRETAFTYAVSAAGVVNAMSRACREGELSTCGCSRAARPKDLPRDWLWGGCGDNIDYGYRFAKEFVDARERERIHAKGSYESARILMNLHNNEAGRRTVYNLADVACKCHGVSGSCSLKTCWLQLADFRKVGDALKEKYDSAAAMRLNSRGKLVQVNSRFNSPTTQDLVYIDPSPDYCVRNESTGSLGTQGRLCNKTSEGMDGCELMCCGRGYDQFKTVQTERCHCKFHWCCYVKCKKCTEIVDQFVCK
B1: the “beta-catenin nuclear localization (percentage of cells with nuclear beta-catenin staining)” value in data set [1] (setting [9]) was “did not promote beta-catenin nuclear localization”. The “Wnt signaling pathway shown in one or more non-cardiac cell types” value in data set [7] is “signal via the non-canonical signaling pathway”.

B2: FRP2: Wnt inhibitor, secreted frizzled-related protein class (protein, UniProt Q96HF1 25-295, looked up)
Secreted frizzled-related …: LFLFGQPDFSYKRSNCKPIPANLQLCHGIEYQNMRLPNLLGHETMKEVLEQAGAWIPLVMKQCHPDTKKFLCSLFAPVCLDDLDETIQPCHSLCVQVKDRCAPVMSAFGFPWPDMLECDRFPQDNDLCIPLASSDHLLPATEEAPKVCEACKNKNDDDNDIMETLCKNDFALKIKVKEITYINRDTKIILETKSKTIYKLNGVSERDLKKSVLWLKDSLQCTCEEMNDINAPYLVMGQKQGGELVITSVKRWQKGQREFKRISRSIRKLQC
On to B2, for which the “abolition of Wnt3A induced cardiomyocyte proliferation” value in data set [8] is “did not”.

B3: FRP3: Wnt inhibitor, secreted frizzled-related protein class (protein, UniProt Q92765 33-325, looked up)
Secreted frizzled-related …: AACEPVRIPLCKSLPWNMTKMPNHLHHSTQANAILAIEQFEGLLGTHCSPDLLFFLCAMYAPICTIDFQHEPIKPCKSVCERARQGCEPILIKYRHSWPENLACEELPVYDRGVCISPEAIVTADGADFPMDSSNGNCRGASSERCKCKPIRATQKTYFRNNYNYVIRAKVKEIKTKCHDVTAVVEVKEILKSSLVNIPRDTVNLYTSSGCLCPPLNVNEEYIIMGYEDEERSRLLLVEGSIAEKWKDRLGKKVKRWDMKLRHLGLSKSDSSNSDSTQSQKSGRNSNPRQARN
Regarding B3, the “abolition of Wnt3A induced cardiomyocyte proliferation” value in data set [8] is reported as “did not”.

The values above are taken from patent publication US20050261189A1, “Methods of promoting cardiac cell proliferation” (Hydra Biosciences, Inc., priority 2004, published 2005).
